Measurements published in patent publication US4006225A, “Method of using reduction products of everninomicins as antibacterial agents and pharmaceutical compositions useful therefor” (Schering Corporation, priority 1975, dated 1977).
In brackets after ≈: the same amount, converted by molar mass. Several values for one entry are separate records, joined by “and”; a condition that tells them apart may be missing. Equal values may be shown once. Entries after “also recorded” stand apart in the source; their conditions may differ. Where a name gives a salt, the structure may show the parent alone. Read-outs that look alike come from different tables or passages of the source.

Legend:
[1] = system: Staphylococcus and Streptococcus; assay: in vitro susceptibility of gram-positive microorganisms, standard tube dilution (MIC); assay type: cell-based; settings: for MIC: Staphylococcus and Streptococcus, 24 hours at 37° C, Penassay broth; for antibacterial activity compared with everninomicin D: gram-positive bacteria
Method: The comparative in vitro activities of nitrosoeverninomicin D and the sodium salt thereof, hydroxylaminoeverninomicin D and the sodium salt and N-methylglucamine salt thereof, hydroxylaminoeverninomicin D benzyl nitrone N-methylglucamine salt, hydroxylaminoeverninomicin B and hydroxylaminoeverninomicin C are set forth in Table 1 below. The susceptibility of the test gram-positive microorganisms to the antibacterials was determined by standard tube dilution methods. In each instance 10^^-5 dilutions of 24-hour broth cultures were employed as inoculum with the endpoints being taken after incubation for 24 hours at 37° C in a Difco […] broth medium (Difco Labs., Detroit, Michigan). In the tables, the activity (or assay value) of each respective antibacterial agent is expressed in units per milliliter or micrograms per milliliter.

[2] = acute toxicity (LD50) in mice; settings: mouse, in vivo; for LD50 in mice I.P. (mg/kg): ip; for LD50 in mice I.V. (mg/kg): iv; for LD50 in mice S.C. (mg/kg): sc
Method: The acute toxicity (LD50) of the antibacterial substances in either aqueous suspensions or aqueous solutions is measured in milligrams per kilogram in standard manner using male CF-1 mice weighing 20 grams.

[3] = peak serum levels in dogs; assay type: in vivo; settings: dog, 10 mg/kg I.M.
Method: (§1) In determining peak serum levels, the animal tested (e.g. dog or rat) is given a single dose of 10 or 25 mg/kg of everninomicin D or derivative thereof of this invention, blood samples are taken periodically, and the serum thereof is assayed for anti-bacterial activity by an agar-diffusion-assay as described by Weinstein et al., Antimicrobial Agents and Chemotherapy, p 24 (1964).

[4] = peak serum levels in rats; assay type: in vivo; settings: rat, 25 mg/kg S.C.
Method: as §1

[5] = pKa of purified everninomicin D; assay type: physicochemical
[6] = system: N.gonorrhea and N.meningitidis; assay: in vitro susceptibility of gram-negative microorganisms, plate dilution in Thayer-Martin medium (MIC); assay type: cell-based, Neisseria gonorrhea and Neisseria meningitidis; settings: for MIC: N.gonorrhea and N.meningitidis, Thayer-Martin medium
Method: The susceptibility of the gram-negative microorganisms to the antibacterials was determined by plate dilution methods in Thayer-Martin medium by the known Thayer-Martin procedure.

[7] = absorption, serum levels and excretion after injection compared with everninomicin D; assay type: in vivo; settings: by injection
Method: as §1

[8] = system: S. aureus (A.T.C.C. 6538p); assay: microbiological assay (bioassay), cup-type agar diffusion; assay type: cell-based
Method: The microbiological assay (also called the bioassay) is effected microbiologically by a standard cup-type agar diffusion assay technique using S. aureus (A.T.C.C. 6538p) as test organism. A reference curve is prepared by plotting the dosage-response of the antibacterial agent in ethanol diluted by phosphate buffer at pH7 upon a medium of the following composition which has been inoculated with the test organism (i.e. S. aureus): A suspension of the assay organism (S. aureus A.T.C.C. 6538p) is standardized to produce 20% transmission at 660 mμ in a colorimeter. The potency of the sample is determined from the reference curve and expressed in terms of units per milligram (a unit being that amount of test substance required to produce a 15 mm zone of inhibition with a steel cylinder of 6.5 mm outside diameter).

In the case of `COCC1OC(OC2OCC3OC4(OCC(O)(C(C)OC)C5OCOC54)OC3C2OC)C(OC)C(O)C1OC1OC(C)C(OC)C(OC2CC3(C)OC4(CC(O)C(OC5CC(OC6CC(C)([N+](=O)[O-])C(OC)C(C)O6)C(OC(=O)c6c(C)c(Cl)c(O)c(Cl)c6OC)C(C)O5)C(C)O4)OC3C(C)O2)C1O` (stereo not drawn) [Everninomicin D, everninomicin D, reference compound], the MIC ([1]; 24 h, read-out: MIC) is reported as 0.03 to 0.3 µg/mL (≈ 0.0195 to 0.195 µM), the “LD50 in mice I.P. (mg/kg)” value [2] is reported as > 3800 and the “LD50 in mice I.V. (mg/kg)” value [2] is reported as 125. For the same compound, the “LD50 in mice Oral (mg/kg)” value [2] was > 3800, the “LD50 in mice S.C. (mg/kg)” value [2] was > 3800 and the “Peak serum levels in dogs” value [3] was 2 to 3 µg/mL. The “Peak serum levels in rats” value [4] was 10 to 12 µg/mL and the pKa [5] was 7.2.

`COCC1OC(OC2OCC3OC4(OCC(O)(C(C)OC)C5OCOC54)OC3C2OC)C(OC)C(O)C1OC1OC(C)C(OC)C(OC2OC(C)C3OC4(CC(O)C(OC5CC(OC6CC(C)(NO)C(OC)C(C)O6)C(OC(=O)c6c(C)c(Cl)c(O)c(Cl)c6OC)C(C)O5)C(C)O4)OC3(C)C2O)C1O` (stereo not drawn) [Hydroxylaminoeverninomicin B, hydroxylaminoeverninomicin B] showed an MIC ([1]; 24 h, read-out: MIC) of 0.1 to 1 µg/mL (≈ 0.065 to 0.65 µM).

In the case of `COCC1OC(OC2OCC3OC4(OCC(O)C5OCOC54)OC3C2OC)C(OC)C(O)C1OC1OC(C)C(OC)C(OC2CC3(C)OC4(CC(O)C(OC5CC(OC6CC(C)(NO)C(OC)C(C)O6)C(OC(=O)c6c(C)c(Cl)c(O)c(Cl)c6OC)C(C)O5)C(C)O4)OC3C(C)O2)C1O` (stereo not drawn) [Hydroxylaminoeverninomicin C, hydroxylaminoeverninomicin C], the MIC ([1]; 24 h, read-out: MIC) is reported as 0.1 to 0.8 µg/mL (≈ 0.0682 to 0.546 µM) and the Cmax ([3]; serum, im) is reported as 15000 ng/mL.

With `COCC1OC(OC2OCC3OC4(OCC(O)(C(C)OC)C5OCOC54)OC3C2OC)C(OC)C(O)C1OC1OC(C)C(OC)C(OC2CC3(C)OC4(CC(O)C(OC5CC(OC6CC(C)(NO)C(OC)C(C)O6)C(OC(=O)c6c(C)c(Cl)c(O)c(Cl)c6OC)C(C)O5)C(C)O4)OC3C(C)O2)C1O` (stereo not drawn) [Hydroxylaminoeverninomicin D N-methylglucamine salt] the “MIC” value [1] was 0.08 to 0.8 µg/mL, the “MIC” value [6] was 0.2 to 1.0 µg/mL and the “LD50 in mice I.P. (mg/kg)” value [2] was 500. The “LD50 in mice I.V. (mg/kg)” value [2] was 30, the “LD50 in mice Oral (mg/kg)” value [2] was > 2000 and the “LD50 in mice S.C. (mg/kg)” value [2] was 500. For the same compound, the “Peak serum levels in dogs” value [3] was 20 to 30 µg/mL and the “Peak serum levels in rats” value [4] was 30 to 40 µg/mL.

In the case of `COCC1OC(OC2OCC3OC4(OCC(O)(C(C)OC)C5OCOC54)OC3C2OC)C(OC)C(O)C1OC1OC(C)C(OC)C(OC2CC3(C)OC4(CC(O)C(OC5CC(OC6CC(C)(NO)C(OC)C(C)O6)C(OC(=O)c6c(C)c(Cl)c(O)c(Cl)c6OC)C(C)O5)C(C)O4)OC3C(C)O2)C1O` (stereo not drawn) [Hydroxylaminoeverninomicin D sodium salt, hydroxylaminoeverninomicin D sodium salt], the “MIC” value ([1]; sodium salt) is reported as 0.08 to 0.8 µg/mL, the “antibacterial activity compared with everninomicin D” value ([1]; sodium salt) is reported as “antibacterial activity comparable to that of the everninomicin D precursor; also recorded: comparable antibacterial activity against gram-positive bacteria” and the MIC ([6]; Neisseria meningitidis, read-out: MIC) is reported as 0.2 to 1 µg/mL. The “LD50 in mice I.P. (mg/kg)” value [2] was 500, the “LD50 in mice I.V. (mg/kg)” value [2] was 30 and the “LD50 in mice Oral (mg/kg)” value [2] was > 2000. The “LD50 in mice S.C. (mg/kg)” value [2] was 500, the “Peak serum levels in dogs” value [3] was 20 to 30 µg/mL and the “Peak serum levels in rats” value [4] was 30 to 40 µg/mL. The “absorption compared with everninomicin D” value [7] was “more rapidly absorbed”, the “excretion compared with everninomicin D” value [7] was “more rapidly excreted than everninomicin D” and the “serum levels compared with everninomicin D” value [7] was “higher serum levels”.

With `COCC1OC(OC2OCC3OC4(OCC(O)(C(C)OC)C5OCOC54)OC3C2OC)C(OC)C(O)C1OC1OC(C)C(OC)C(OC2CC3(C)OC4(CC(O)C(OC5CC(OC6CC(C)(NO)C(OC)C(C)O6)C(OC(=O)c6c(C)c(Cl)c(O)c(Cl)c6OC)C(C)O5)C(C)O4)OC3C(C)O2)C1O` (stereo not drawn) [Hydroxylaminoeverninomicin D, hydroxylaminoeverninomicin D] the “MIC” value [1] was 0.3 to 0.8 µg/mL, the “antibacterial activity compared with everninomicin D” value [1] was “antibacterial activity comparable to that of everninomicin D; also recorded: comparable antibacterial activity against gram-positive bacteria” and the “activity against certain gram-negative bacteria” value ([6]; certain gram-negative bacteria, in words) was “certain gram-negative bacteria are also susceptible”. The “absorption compared with everninomicin D” value [7] was “more rapidly absorbed”.

With `COCC1OC(OC2OCC3OC4(OCC(O)(C(C)OC)C5OCOC54)OC3C2OC)C(OC)C(O)C1OC1OC(C)C(OC)C(OC2CC3(C)OC4(CC(O)C(OC5CC(OC6CC(C)(N=O)C(OC)C(C)O6)C(OC(=O)c6c(C)c(Cl)c(O)c(Cl)c6OC)C(C)O5)C(C)O4)OC3C(C)O2)C1O` (stereo not drawn) [Nitrosoeverninomicin D sodium salt, nitrosoeverninomicin D sodium salt] the “MIC” value ([1]; sodium salt) was 0.08 to 3 µg/mL.

With `COCC1OC(OC2OCC3OC4(OCC(O)(C(C)OC)C5OCOC54)OC3C2OC)C(OC)C(O)C1OC1OC(C)C(OC)C(OC2CC3(C)OC4(CC(O)C(OC5CC(OC6CC(C)(N=O)C(OC)C(C)O6)C(OC(=O)c6c(C)c(Cl)c(O)c(Cl)c6OC)C(C)O5)C(C)O4)OC3C(C)O2)C1O` (stereo not drawn) [Nitrosoeverninomicin D, nitrosoeverninomicin D] the MIC ([1]; 24 h, read-out: MIC) was 0.08 to 0.8 µg/mL (≈ 0.0526 to 0.526 µM), the Bioassay [8] was 1460 µg/mL and the “Peak serum levels in dogs” value [3] was 6 µg/mL. The “Peak serum levels in rats” value [4] was 10 to 11 µg/mL.

With `COCC1OC(OC2OCC3OC4(OCC(O)(C(C)OC)C5OCOC54)OC3C2OC)C(OC)C(O)C1OC1OC(C)C(OC)C(OC2CC3(C)OC4(CC(O)C(OC5CC(OC6CC(C)([N+]([O-])=Cc7ccccc7)C(OC)C(C)O6)C(OC(=O)c6c(C)c(Cl)c(O)c(Cl)c6OC)C(C)O5)C(C)O4)OC3C(C)O2)C1O` (stereo not drawn) [hydroxylaminoeverninomicin D benzyl nitrone N-methylglucamine salt] the “Peak serum levels in dogs” value [3] was 1 to 2 µg/mL and the “Peak serum levels in rats” value ([4]; 25 mg/kg) was 10 to 12 µg/mL and 9 µg/mL.

For `COCC1OC(OC2OCC3OC4(OCC(O)(C(C)OC)C5OCOC54)OC3C2OC)C(OC)C(O)C1OC1OC(C)C(OC)C(OC2CC3(C)OC4(CC(O)C(OC5CC(OC6CC(C)([N+]([O-])=Cc7ccccc7)C(OC)C(C)O6)C(OC(=O)c6c(C)c(Cl)c(O)c(Cl)c6OC)C(C)O5)C(C)O4)OC3C(C)O2)C1O` (stereo not drawn) [hydroxylaminoeverninomicin D benzyl nitrone], the Bioassay [8] was 1309.0 µg/mL.

With `COCC1OC(OC2OCC3OC4(OCC(O)(C(C)OC)C5OCOC54)OC3C2OC)C(OC)C(O)C1OC1OC(C)C(OC)C(OC2CC3(C)OC4(CC(O)C(OC5CC(OC6CC(C)([N+]([O-])=Cc7ccco7)C(OC)C(C)O6)C(OC(=O)c6c(C)c(Cl)c(O)c(Cl)c6OC)C(C)O5)C(C)O4)OC3C(C)O2)C1O` (stereo not drawn) [hydroxylaminoeverninomicin D furfuryl nitrone] the Bioassay [8] was 1063.4 µg/mL.

In the case of `CCCCCCC=[N+]([O-])C1(C)CC(OC2CC(OC3C(O)CC4(OC3C)OC3C(C)OC(OC5C(O)C(OC6C(COC)OC(OC7OCC8OC9(OCC(O)(C(C)OC)C%10OCOC%109)OC8C7OC)C(OC)C6O)OC(C)C5OC)CC3(C)O4)OC(C)C2OC(=O)c2c(C)c(Cl)c(O)c(Cl)c2OC)OC(C)C1OC` (stereo not drawn) [hydroxylaminoeverninomicin D heptyl nitrone], the Bioassay [8] is reported as 892 µg/mL.
